# Experimental data taken from PubChem BioAssay (NCI).
#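 GI50 = concentration required for 50% inhibition of growth. TGI: total growth inhibition.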
# Assays:
# Assay in all cases: DTP human tumour cell line panel, 384-well format
# [1] = system: MDA-MB-231 breast
# [2] = system: NCI-H23 lung
# [3] = system: RXF 393 renal
# [4] = system: TK-10 renal
# [5] = system: DU-145 prostate
# [6] = system: OVCAR-4 ovarian
# [7] = system: SF-539 CNS
# [8] = system: NCI-H226 lung
# [9] = system: HS 578T breast
# [10] = system: HT29 colon
# [11] = system: HL-60(TB) leukemia
# [12] = system: ACHN renal
# [13] = system: COLO 205 colon
# [14] = system: OVCAR-8 ovarian
# [15] = system: HCT-15 colon
# [16] = system: KM12 colon
# [17] = system: UACC-257 melanoma
# [18] = system: MALME-3M melanoma
# [19] = system: SR leukemia
# [20] = system: A498 renal
# [21] = system: 786-0 renal
# [22] = system: MDA-MB-468 breast
# [23] = system: CCRF-CEM leukemia
# [24] = system: SNB-19 CNS
# [25] = system: SNB-75 CNS
# [26] = system: SN12C renal
# [27] = system: T-47D breast
# [28] = system: PC-3 prostate
# [29] = system: EKVX NSCLC
# [30] = system: NCI-H460 NSCLC
# [31] = system: M14 melanoma
# [32] = system: MDA-MB-435 melanoma
# [33] = system: HOP-62 NSCLC
# [34] = system: NCI-H522 lung
# [35] = system: NCI-H322M lung
# [36] = system: SK-OV-3 ovarian
# [37] = system: BT-549 breast
# [38] = system: SK-MEL-28 melanoma
# [39] = system: UO-31 renal
# [40] = system: UACC-62 melanoma
# [41] = system: CAKI-1 renal
# [42] = system: SF-268 CNS
# [43] = system: HCC-2998 colon
# [44] = system: LOX IMVI melanoma
# [45] = system: MCF7 breast
# [46] = system: IGROV1 ovarian
# [47] = system: K-562 leukemia
# [48] = system: SK-MEL-5 melanoma
# [49] = system: OVCAR-5 ovarian
# [50] = system: A549 NSCLC
# [51] = system: HOP-92 NSCLC
# [52] = system: U251 glioblastoma
# [53] = system: SF-295 CNS
# [54] = system: MOLT-4 leukemia
# [55] = system: OVCAR-3 ovarian
# [56] = system: NCI/ADR-RES ovarian
# [57] = system: SW-620 colon
# [58] = system: RPMI-8226 leukemia
structure (smiles),measurement,setting,value
O=C(Nc1cccc(Nc2ncc(Br)c(NCCc3cnc[nH]3)n2)c1)N1CCCC1,GI50,[1],2.4 µM
same,TGI,[1],12.7 µM
same,GI50,[2],2.31 µM
same,TGI,[2],10.7 µM
same,GI50,[3],6.04 µM
same,TGI,[3],20.9 µM
same,GI50,[4],7.86 µM
same,TGI,[4],23.8 µM
same,GI50,[5],5.13 µM
same,TGI,[5],19.3 µM
same,GI50,[6],1.13 µM
same,TGI,[6],10.4 µM
same,GI50,[7],0.955 µM
same,TGI,[7],4.06 µM
same,GI50,[8],0.873 µM
same,TGI,[8],4.74 µM
same,GI50,[9],1.44 µM
same,TGI,[9],3.59 µM
same,GI50,[10],4.1 µM
same,TGI,[10],18.5 µM
same,GI50,[11],0.399 µM
same,TGI,[11],1.94 µM
same,GI50,[12],12.8 µM
same,TGI,[12],59.5 µM
same,GI50,[13],0.273 µM
same,TGI,[13],0.886 µM
same,GI50,[14],5.61 µM
same,TGI,[14],18.9 µM
same,GI50,[15],11.4 µM
same,TGI,[15],25.6 µM
same,GI50,[16],0.684 µM
same,TGI,[16],10.6 µM
same,GI50,[17],10.5 µM
same,TGI,[17],22.4 µM
same,GI50,[18],4.16 µM
same,TGI,[18],17.9 µM
same,GI50,[19],0.18 µM
same,TGI,[19],0.349 µM
same,GI50,[20],4.58 µM
same,TGI,[20],60.7 µM
same,GI50,[21],5.36 µM
same,TGI,[21],19.5 µM
same,GI50,[22],0.283 µM
same,TGI,[22],0.631 µM
same,GI50,[23],0.19 µM
same,TGI,[23],0.377 µM
same,GI50,[24],8.32 µM
same,TGI,[24],46.8 µM
same,GI50,[25],2 µM
same,TGI,[25],8.78 µM
same,GI50,[26],1.48 µM
same,TGI,[26],10.6 µM
same,GI50,[27],4.37 µM
same,TGI,[27],17.2 µM
same,GI50,[28],4.38 µM
same,TGI,[28],18.4 µM
same,GI50,[29],6.65 µM
same,TGI,[29],27.3 µM
same,GI50,[30],2.96 µM
same,TGI,[30],8.71 µM
same,GI50,[31],3.02 µM
same,TGI,[31],12.9 µM
same,GI50,[32],2.96 µM
same,TGI,[32],16.5 µM
same,GI50,[33],2.78 µM
same,TGI,[33],12.4 µM
same,GI50,[34],1.08 µM
same,TGI,[34],4.86 µM
same,GI50,[35],10.3 µM
same,TGI,[35],22.3 µM
same,GI50,[36],4.21 µM
same,TGI,[36],18.8 µM
same,GI50,[37],1.57 µM
same,TGI,[37],5.23 µM
same,GI50,[38],5.06 µM
same,TGI,[38],18.7 µM
same,GI50,[39],26.6 µM
same,TGI,[39],> 100 µM
same,GI50,[40],1.69 µM
same,TGI,[40],14.2 µM
same,GI50,[41],3.62 µM
same,TGI,[41],19.7 µM
same,GI50,[42],1.92 µM
same,TGI,[42],10.2 µM
same,GI50,[43],6.06 µM
same,TGI,[43],19 µM
same,GI50,[44],1.18 µM
same,TGI,[44],2.8 µM
same,GI50,[45],3.67 µM
same,TGI,[45],19.9 µM
same,GI50,[46],6.48 µM
same,TGI,[46],21.1 µM
same,GI50,[47],2.05 µM
same,TGI,[47],10.5 µM
same,GI50,[48],3.58 µM
same,TGI,[48],14.6 µM
same,GI50,[49],4.3 µM
same,TGI,[49],24.9 µM
same,GI50,[50],6.32 µM
same,TGI,[50],> 100 µM
same,GI50,[51],1.6 µM
same,TGI,[51],6.13 µM
same,GI50,[52],9.49 µM
same,TGI,[52],79.1 µM
same,GI50,[53],3.77 µM
same,TGI,[53],14.5 µM
same,GI50,[54],0.202 µM
same,TGI,[54],0.403 µM
same,GI50,[55],2.72 µM
same,TGI,[55],17.3 µM
same,GI50,[56],> 100 µM
same,TGI,[56],> 100 µM
same,GI50,[57],1.6 µM
same,TGI,[57],5.1 µM
same,GI50,[58],1.45 µM
same,TGI,[58],2.9 µM
